Data as given in patent publication US20250236654A1, “C-TYPE NATRIURETIC PEPTIDE ENGRAFTED ANTIBODIES” (Bayer Aktiengesellschaft, priority 2018, published 2025).
Where a SMILES comes first, the peptide text is derived from it. Bridges are numbered along the chain shown (N, C = ends). Where no end group is shown, it is not given here.

Tests used:
[1] = target: T1, insulin degrading enzyme (IDE) (Rattus norvegicus, UniProt P35559); test: Sensitivity towards proteolytic degradation by IDE (activity on receptor cell line after incubation); format: in vitro ADME; settings: 4 hours, 37° C., 0.6 μg/ml IDE
T1 construct: purchased Merck 407241-50UG
T1 sequence (P35559 1-1019): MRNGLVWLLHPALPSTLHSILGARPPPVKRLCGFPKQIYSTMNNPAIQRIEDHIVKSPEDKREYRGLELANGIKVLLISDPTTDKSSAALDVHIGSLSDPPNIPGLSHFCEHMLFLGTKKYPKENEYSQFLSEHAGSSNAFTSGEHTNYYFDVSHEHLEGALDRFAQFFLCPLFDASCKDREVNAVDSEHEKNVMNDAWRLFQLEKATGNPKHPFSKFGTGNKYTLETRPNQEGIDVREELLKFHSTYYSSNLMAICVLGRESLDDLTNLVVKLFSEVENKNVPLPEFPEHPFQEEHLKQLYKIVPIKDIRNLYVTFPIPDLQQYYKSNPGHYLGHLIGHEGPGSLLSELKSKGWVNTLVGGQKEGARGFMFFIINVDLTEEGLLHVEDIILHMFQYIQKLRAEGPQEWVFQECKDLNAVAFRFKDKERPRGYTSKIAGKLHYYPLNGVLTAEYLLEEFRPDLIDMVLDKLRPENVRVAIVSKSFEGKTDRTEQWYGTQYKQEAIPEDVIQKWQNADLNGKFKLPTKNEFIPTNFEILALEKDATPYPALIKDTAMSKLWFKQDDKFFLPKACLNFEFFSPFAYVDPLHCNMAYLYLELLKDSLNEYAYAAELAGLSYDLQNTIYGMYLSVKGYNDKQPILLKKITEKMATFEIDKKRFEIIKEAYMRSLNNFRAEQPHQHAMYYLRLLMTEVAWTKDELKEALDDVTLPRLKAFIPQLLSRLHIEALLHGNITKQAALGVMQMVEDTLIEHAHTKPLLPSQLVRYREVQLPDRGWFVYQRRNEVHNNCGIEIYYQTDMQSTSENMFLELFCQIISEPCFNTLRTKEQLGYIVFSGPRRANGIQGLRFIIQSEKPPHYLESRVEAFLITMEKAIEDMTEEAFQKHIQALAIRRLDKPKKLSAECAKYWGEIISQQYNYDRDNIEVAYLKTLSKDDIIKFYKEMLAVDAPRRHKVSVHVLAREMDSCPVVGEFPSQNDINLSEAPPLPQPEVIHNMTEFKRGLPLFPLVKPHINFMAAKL

rat BNP receptor (NPR-A) = target: T2, rat BNP receptor (NPR-A) (Rattus norvegicus, UniProt P18910); test: Fluorescence-based rat BNP receptor (NPR-A) GCaMP6 reporter cell line
T2 construct: expressed in transfected cells; host or cells: CHO cell line stably expressing GCaMP6, co-transfected with CNGA2 and rat NPR-A
T2 sequence (P18910 29-1057): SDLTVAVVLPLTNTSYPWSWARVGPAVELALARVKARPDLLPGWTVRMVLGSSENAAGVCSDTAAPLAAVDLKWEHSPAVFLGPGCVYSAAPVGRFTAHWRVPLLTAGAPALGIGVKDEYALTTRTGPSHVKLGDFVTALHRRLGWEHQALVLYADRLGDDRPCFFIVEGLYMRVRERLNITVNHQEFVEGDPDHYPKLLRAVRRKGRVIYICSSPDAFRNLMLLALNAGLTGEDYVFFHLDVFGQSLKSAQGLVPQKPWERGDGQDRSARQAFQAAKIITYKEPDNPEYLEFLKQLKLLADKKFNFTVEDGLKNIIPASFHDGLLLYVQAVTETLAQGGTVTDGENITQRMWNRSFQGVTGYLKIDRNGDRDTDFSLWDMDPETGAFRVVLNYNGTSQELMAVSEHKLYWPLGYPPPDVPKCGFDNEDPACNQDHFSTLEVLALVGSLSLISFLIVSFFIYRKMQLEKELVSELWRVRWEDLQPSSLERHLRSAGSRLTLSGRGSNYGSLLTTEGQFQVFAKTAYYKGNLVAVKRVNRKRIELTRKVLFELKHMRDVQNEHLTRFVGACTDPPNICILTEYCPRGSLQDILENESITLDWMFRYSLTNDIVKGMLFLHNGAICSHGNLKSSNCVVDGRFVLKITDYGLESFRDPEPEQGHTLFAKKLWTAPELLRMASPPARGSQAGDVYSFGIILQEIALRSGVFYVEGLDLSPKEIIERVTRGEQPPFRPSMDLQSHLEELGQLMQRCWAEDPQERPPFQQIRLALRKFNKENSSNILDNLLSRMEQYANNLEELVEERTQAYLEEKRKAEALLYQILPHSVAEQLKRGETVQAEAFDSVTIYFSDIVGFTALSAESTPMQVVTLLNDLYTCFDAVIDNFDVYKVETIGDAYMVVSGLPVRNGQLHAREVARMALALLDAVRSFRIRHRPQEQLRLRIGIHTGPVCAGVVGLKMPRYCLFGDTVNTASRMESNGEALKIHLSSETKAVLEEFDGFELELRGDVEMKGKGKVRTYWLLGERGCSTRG
Source text: Activity data of BNP engrafted antibodies in NPR-A receptor cell line A luminescence-based rat BNP receptor (NPR-A) cell line was generated as described previously (Wunder et al. (2013), Eur J Pharmacol. 698: 131). Accordingly, a fluorescence-based rat BNP receptor (NPR-A) cell line was generated by co-transfecting a CHO cell line, stably expressing the fluorescent calcium sensor protein GCaMP6, with plasmid constructs encoding CNGA2 (cGMP biosensor) and rat NPR-A.
BNP receptor GCaMP6 cells were cultured for one day on black, clear-bottom 384-well microtiter plates (2500 cells/well). After removal of the cell culture medium reporter cells were loaded for 20 min with Tyrode (130 mM NaCl, 5 mM KCl, 2 mM CaCl2, 20 mM HEPES, 1 mM MgCl2, 4.8 mM NaHCO3 at pH 7.4) containing a black masking dye at 37° C. and 5% CO2. IBMX (0.2 mM) was used to prevent cGMP degradation by endogenous phosphodiesterases.
Fluorescence measurements (3 min, kinetic mode) were directly started upon agonist addition. Receptor ligands were added in Tyrode containing a black masking dye and 0.1% BSA. Measurements were done on a FLIPR Tetra®.

[2] = target: T3, neutral endopeptidase (NEP) (Homo sapiens, UniProt P08473); test: Sensitivity towards proteolytic degradation by NEP (activity on receptor cell line after incubation); format: in vitro ADME; settings: 4 hours, 37° C., 0.6 μg/ml NEP
T3 construct: purchased R&D Systems 1182-ZNC
T3 sequence (P08473 whole entry): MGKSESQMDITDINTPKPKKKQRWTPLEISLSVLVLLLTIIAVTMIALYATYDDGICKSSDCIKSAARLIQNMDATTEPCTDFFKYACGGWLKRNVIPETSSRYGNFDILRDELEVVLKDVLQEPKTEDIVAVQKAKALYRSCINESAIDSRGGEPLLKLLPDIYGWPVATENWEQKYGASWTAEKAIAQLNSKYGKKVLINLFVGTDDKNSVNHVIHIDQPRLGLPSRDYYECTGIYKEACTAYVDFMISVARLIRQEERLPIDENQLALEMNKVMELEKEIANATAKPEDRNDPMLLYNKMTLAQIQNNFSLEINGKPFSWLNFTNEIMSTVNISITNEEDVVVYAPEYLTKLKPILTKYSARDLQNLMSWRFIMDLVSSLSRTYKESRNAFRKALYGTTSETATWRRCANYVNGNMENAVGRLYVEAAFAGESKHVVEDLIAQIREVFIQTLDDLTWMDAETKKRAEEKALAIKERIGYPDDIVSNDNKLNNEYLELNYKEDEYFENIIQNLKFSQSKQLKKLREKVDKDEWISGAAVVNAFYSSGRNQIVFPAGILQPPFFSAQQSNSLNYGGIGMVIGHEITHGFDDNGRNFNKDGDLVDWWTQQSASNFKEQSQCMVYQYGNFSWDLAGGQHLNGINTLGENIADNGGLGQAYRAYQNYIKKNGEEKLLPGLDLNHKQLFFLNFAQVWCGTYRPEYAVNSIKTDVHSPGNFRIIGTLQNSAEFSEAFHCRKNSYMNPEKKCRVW

[3] = system: PE-contracted aortic rings; test: Vasorelaxation of isolated rat aortic rings contracted by phenylephrine
Experimental: All experiments were conducted in accordance with institutional guidelines and approved by the local committee on animal experiments. Male Sprague-Dawley rats (weighing 250-300 g) were anesthetized with pentobarbital sodium (40 mg/kg i.p.), killed by decapitation, and exsanguinated. The thoracic aorta was excised and placed in ice-cold Krebs buffer of the following composition: 130 mM NaCl, 14.9 mM NaHCO3, 5.5 mM dextrose, 4.7 mM KCl, 1.18 mM KH2PO4, 1.17 mM MgSO47H2O, and 1.6 mM CaCl22H2O. The vessel was pinned in a Sylgard Petri dish filled with chilled Krebs' solution, cleaned of fat and connective tissue, and cut into ring segments of approximately 3 to 4 mm in length. […] Changes in isometric force were recorded using a PowerLab data acquisition system (software Lab Chart 7.0)
After the equilibration period, aortic rings were challenged with 80 mM KCl to check tissue viability. Next, the endothelial integrity of the preparations was determined by verifying the responsiveness to acetylcholine (ACh, 1 μM) in vessels pre-contracted with Phenylephrine (PE, 1 μM). After wash-out and a period of equilibration, Phenylephrine (PE, 1 μM) was used to induce contraction, thereafter natriuretic peptides and natriuretic peptide engrafted IgGs were evaluated for vasorelaxation.

[4] = system: spontaneously hypertensive rats; test: Blood pressure by radiotelemetry in conscious spontaneously hypertensive rats; format: in vivo, rat; set-up: drop in mean arterial blood pressure (MAP): dose or concentration left out as unconfirmed; settings: intraperitoneal
Experimental: Female spontaneously hypertensive rats (SHR/N Crl BR, Charles River) with a body weight of 210-300 g were used for these studies. All animals were housed in individual cages at 22-24° C. ambient temperature and maintained on a 12-hour light/dark cycle with free access to standard laboratory rat chow and water ad libitum. Telemeter (HD-10, DSI) implantation was performed a minimum of 14 days before animals were used for blood pressure measurements. Surgery was performed under aseptic conditions. After shaving the abdominal wall, a midline abdominal incision was made, and the fluid-filled sensor catheter was inserted upstream into the exposed descending aorta between the iliac bifurcation and the renal arteries. According to the DSI guidelines the tip of the telemetric catheter was located caudal to the renal arteries and secured by tissue adhesive. The transmitter body was affixed to the inner peritoneal wall before closure of the abdomen. […] Data are expressed as % of basal values±SEM of at least 4 animals per group. The basal value for each animal was calculated as the average of the values measured in two hours prior to substance application (7:00-9:00 AM). Data are then expressed as averages every half hour, starting 15 minutes post application. […]

| sensitivity/resistance to proteolytic degradation by IDE [1] | EC50 (rat BNP receptor (NPR-A)) [nM] | sensitivity/resistance to proteolytic degradation by NEP [2] | Compound | vasodilation in PE-contracted aortic rings [3] | Potency (log EC50 values), vasodilation ([3]; endothelium-intact rat aortic rings contracted by phenylephrine (1 μM)) | drop in mean arterial blood pressure (MAP) [4] | duration of effect on MAP ([4]; 500 g dose) [h] |
| --- | --- | --- | --- | --- | --- | --- | --- |
| high sensitivity |  |  | CC[C@H](C)[C@@H]1NC(=O)[C@H](CCCNC(=N)N)NC(=O)[C@H](CC(=O)O)NC(=O)[C@H](CCSC)NC(=O)[C@H](CCCNC(=N)N)NC(=O)CNC(=O)CNC(=O)[C@H](Cc2ccccc2)NC(=O)[C@@H](NC(=O)[C@H](CO)NC(=O)[C@H](CO)NC(=O)[C@H](CCCNC(=N)N)NC(=O)[C@H](CCCNC(=N)N)NC(=O)[C@H](CC(C)C)NC(=O)[C@@H](N)CO)CSSC[C@@H](C(=O)N[C@@H](CC(N)=O)C(=O)N[C@@H](CO)C(=O)N[C@@H](Cc2ccccc2)C(=O)N[C@@H](CCCNC(=N)N)C(=O)N[C@@H](Cc2ccc(O)cc2)C(=O)O)NC(=O)CNC(=O)[C@H](CC(C)C)NC(=O)CNC(=O)[C@H](CO)NC(=O)[C@H](CCC(N)=O)NC(=O)[C@H](C)NC(=O)CNC1=O [ANP, reference compound] |  |  |  |  |
| high sensitivity | 2.9 | high sensitivity | CC[C@H](C)[C@@H]1NC(=O)[C@H](CCCNC(=N)N)NC(=O)[C@H](CC(=O)O)NC(=O)[C@H]([C@@H](C)CC)NC(=O)[C@H](CCCCN)NC(=O)[C@H](CCC(N)=O)NC(=O)CNC(=O)[C@H](Cc2ccccc2)NC(=O)[C@@H](NC(=O)[C@H](CO)NC(=O)[C@H](CO)NC(=O)[C@H](CO)NC(=O)[C@H](Cc2c[nH]cn2)NC(=O)[C@H](C)NC(=O)[C@H](CCSC)NC(=O)[C@H](CCCCN)NC(=O)[C@H](CO)NC(=O)[C@@H](N)CC(N)=O)CSSC[C@@H](C(=O)N[C@@H](CC(=O)O)C(=O)NCC(=O)N[C@@H](CC(C)C)C(=O)N[C@@H](CCCNC(=N)N)C(=O)N[C@@H](CC(C)C)C(=O)N[C@@H](Cc2ccccc2)C(=O)O)NC(=O)CNC(=O)[C@H](CC(C)C)NC(=O)[C@H](CCCNC(=N)N)NC(=O)[C@H](CO)NC(=O)[C@H](C(C)C)NC(=O)[C@H](C)NC(=O)CNC1=O [BNP, reference compound] (H-NSKMAHSSSCFGQKIDRIGAVSRLGCDGLRLF-OH; disulfide 10-26; N-terminus and C-terminus assumed) |  |  |  |  |
|  |  |  | ANP peptide: Rat ANP peptide (ADH-GM-10057T, Santai Labs) used as a reference (SLRRSSCFGGRIDRIGAQSGLGCNSFRY; disulfide 7-23; UniProt P01161 123-150, looked up) [reference compound] | dose-dependent vasodilation | −7.4 | approximately 25% | 6 to 8 |
